Laboratory results from the supplement of paper PMC5908809.

Tests used:
[1] = system: normal NK cells expanded with K562-aAPC; test: percent inhibition of viability; higher = more inhibition; conditions: 72 h, IL-2 2.5 ng/mL
Method: (§1)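 Drug sensitivity and resistance testing on K562-aAPC-expanded normal NK cells: 5 concentrations (10-fold steps over a 10,000-fold range), 72 h at 37 °C, viability by CellTiter-Glo normalised to DMSO and benzethonium chloride controls; DSS from the fitted curve.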

[2] = system: normal NK cells expanded with K562-aAPC; test: drug sensitivity score (DSS) (DSS units); higher = more sensitive; extreme values may be limits of the assay; conditions: 72 h; IL-2 2.5 ng/mL
Method: as §1

IMC-1 (IL-2 20 ng/mL) [3] = test: percent inhibition of viability; higher = more inhibition; conditions: 72 h
[4] = system: normal primary NK cells, pool 2 (3 donors) (IL-2 2.5 ng/mL); test: as above; conditions: 72 h
[5] = system: normal primary NK cells, pool 3 (3 donors) (IL-2 2.5 ng/mL); test: as above; conditions: 72 h
YT (IL-2 2.5 ng/mL) [6] = test: as above; conditions: 72 h
NK-92 (IL-2 2.5 ng/mL) [7] = test: as above; conditions: 72 h
[8] = system: normal primary NK cells, pool 1 (3 donors), resting (IL-2 0 ng/mL); test: as above; conditions: 72 h
[9] = system: normal primary NK cells, pool 1 (3 donors) (IL-2 2.5 ng/mL); test: as above; conditions: 72 h
SNK-6 (IL-2 2.5 ng/mL) [10] = test: as above; conditions: 72 h
NK-YS (IL-2 2.5 ng/mL) [11] = test: as above; conditions: 72 h
KHYG-1 (IL-2 2.5 ng/mL) [12] = test: as above; conditions: 72 h
KAI3 (IL-2 2.5 ng/mL) [13] = test: as above; conditions: 72 h
NKL (IL-2 2.5 ng/mL) [14] = test: as above; conditions: 72 h
DERL-7 (IL-2 2.5 ng/mL) [15] = test: as above; conditions: 72 h
IMC-1 (IL-2 20 ng/mL) [16] = test: drug sensitivity score (DSS) (DSS units); higher = more sensitive; extreme values may be limits of the assay; conditions: 72 h
[17] = system: normal primary NK cells, pool 2 (3 donors) (IL-2 2.5 ng/mL); test: as above; conditions: 72 h
[18] = system: normal primary NK cells, pool 3 (3 donors) (IL-2 2.5 ng/mL); test: as above; conditions: 72 h
YT (IL-2 2.5 ng/mL) [19] = test: as above; conditions: 72 h
NK-92 (IL-2 2.5 ng/mL) [20] = test: as above; conditions: 72 h
[21] = system: normal primary NK cells, pool 1 (3 donors), resting (IL-2 0 ng/mL); test: as above; conditions: 72 h
[22] = system: normal primary NK cells, pool 1 (3 donors) (IL-2 2.5 ng/mL); test: as above; conditions: 72 h
SNK-6 (IL-2 2.5 ng/mL) [23] = test: as above; conditions: 72 h
NK-YS (IL-2 2.5 ng/mL) [24] = test: as above; conditions: 72 h
KHYG-1 (IL-2 2.5 ng/mL) [25] = test: as above; conditions: 72 h
KAI3 (IL-2 2.5 ng/mL) [26] = test: as above; conditions: 72 h
NKL (IL-2 2.5 ng/mL) [27] = test: as above; conditions: 72 h
DERL-7 (IL-2 2.5 ng/mL) [28] = test: as above; conditions: 72 h

O=C(c1cccc(Cl)c1F)N1CCN(Cc2cccc(Nc3nccs3)n2)CC1 [MK-8745] (max concentration tested 2500 nM)
percent inhibition of viability [%]
Conditions	0.25 nM	2.5 nM	25 nM	250 nM	2500 nM
DERL-7 (IL-2 2.5 ng/mL) [15]	-8.45	2.62	1.62	22	83.1
IMC-1 (IL-2 20 ng/mL) [3]	-1.25	-4.64	-0.96	2.91	66.8
KAI3 (IL-2 2.5 ng/mL) [13]	-2.71	2.86	-1.01	18.3	36.5
KHYG-1 (IL-2 2.5 ng/mL) [12]	-1.65	-5.36	-0.69	6.09	44.4
NK-92 (IL-2 2.5 ng/mL) [7]	-12.1	-7.81	-0.68	8.86	26.2
NK-YS (IL-2 2.5 ng/mL) [11]	-0.85	-3.89	-0.06	38.4	61.3
NKL (IL-2 2.5 ng/mL) [14]	-14.5	-12.8	-23.9	17.2	40.3
SNK-6 (IL-2 2.5 ng/mL) [10]	-0.59	0.91	-4.8	47.9	76.6
YT (IL-2 2.5 ng/mL) [6]	-0.09	-1.63	-2.07	7.04	49.4
[1]	-2.18	-4.25	-9.82	1.43	48.4
[4]	-9.44	-9.06	-12.7	-6.66	-1.81
[5]	-9.39	-6.67	-11.6	-9.93	-1.62
[8]	-8.12	-10.6	-11.2	9.28	-1.15
[9]	-9.49	-9.51	-7.79	0.54	-4.11

Conditions	drug sensitivity score
DERL-7 (IL-2 2.5 ng/mL) [28]	7.96
IMC-1 (IL-2 20 ng/mL) [16]	4.06
KAI3 (IL-2 2.5 ng/mL) [26]	4.06
KHYG-1 (IL-2 2.5 ng/mL) [25]	3.3
NK-92 (IL-2 2.5 ng/mL) [20]	2.22
NK-YS (IL-2 2.5 ng/mL) [24]	7.96
NKL (IL-2 2.5 ng/mL) [27]	4.29
SNK-6 (IL-2 2.5 ng/mL) [23]	9.92
YT (IL-2 2.5 ng/mL) [19]	3.79
[2]	2.71
[17]	0.89
[18]	0.89
[21]	0
[22]	0

COc1ccc(-c2cc3c(C)nc(N)nc3n([C@H]3CC[C@H](OCCO)CC3)c2=O)cn1 (max concentration tested 10000 nM)
percent inhibition of viability [%]
Conditions	1 nM	10 nM	100 nM	1000 nM	10000 nM
DERL-7 (IL-2 2.5 ng/mL) [15]	2.23	21.8	69.6	92	99.9
IMC-1 (IL-2 20 ng/mL) [3]	-2.45	-13.7	-14.2	-15.4	64.2
KAI3 (IL-2 2.5 ng/mL) [13]	1.74	8.43	34.4	63.8	82.1
KHYG-1 (IL-2 2.5 ng/mL) [12]	2.41	2.54	15.7	68.3	103
NK-92 (IL-2 2.5 ng/mL) [7]	16.6	20.7	49.1	75.7	97.2
NK-YS (IL-2 2.5 ng/mL) [11]	1.08	-1.02	20.1	62.4	85
NKL (IL-2 2.5 ng/mL) [14]	-11.1	4.69	32.7	66.2	93.9
SNK-6 (IL-2 2.5 ng/mL) [10]	-16.2	-10.9	2.3	30.8	65.3
YT (IL-2 2.5 ng/mL) [6]	8.27	10.8	38.5	76.5	86.5
[1]	-6.01	3.97	27.8	42.7	60.2
[4]	-0.57	7.93	21.5	39.9	96.6
[5]	5.05	8.38	19.9	31.5	96.7
[8]	19.4	14.7	33.7	39	98.8
[9]	-2.26	7.17	28.9	35.8	99.4

Conditions	drug sensitivity score
DERL-7 (IL-2 2.5 ng/mL) [28]	27.6
IMC-1 (IL-2 20 ng/mL) [16]	2.72
KAI3 (IL-2 2.5 ng/mL) [26]	16.5
KHYG-1 (IL-2 2.5 ng/mL) [25]	15
NK-92 (IL-2 2.5 ng/mL) [20]	22.4
NK-YS (IL-2 2.5 ng/mL) [24]	14.1
NKL (IL-2 2.5 ng/mL) [27]	16.6
SNK-6 (IL-2 2.5 ng/mL) [23]	7.29
YT (IL-2 2.5 ng/mL) [19]	19.1
[2]	11.5
[17]	11
[18]	8.86
[21]	14.5
[22]	11.4

CC[C@@H]1C(=O)N(C)c2cnc(Nc3ccc(C(=O)N[C@H]4CC[C@H](N5CCN(CC6CC6)CC5)CC4)cc3OC)nc2N1C(C)C [Volasertib] (max concentration tested 1000 nM)
percent inhibition of viability [%]
Conditions	0.1 nM	1 nM	10 nM	100 nM	1000 nM
DERL-7 (IL-2 2.5 ng/mL) [15]	6.13	1.89	15.1	98.3	95
IMC-1 (IL-2 20 ng/mL) [3]	-3.21	-4.2	2.24	94	93.2
KAI3 (IL-2 2.5 ng/mL) [13]	2.62	2.62	15	38.7	51.1
KHYG-1 (IL-2 2.5 ng/mL) [12]	-0.67	-1.62	4.85	98.4	99.2
NK-92 (IL-2 2.5 ng/mL) [7]	-14.8	-9.97	33.1	92	82.6
NK-YS (IL-2 2.5 ng/mL) [11]	-1.3	1.64	5.27	59	51
NKL (IL-2 2.5 ng/mL) [14]	-8.73	-9.25	-5.94	65.4	40.5
SNK-6 (IL-2 2.5 ng/mL) [10]	8.84	8.4	39	65.5	42.1
YT (IL-2 2.5 ng/mL) [6]	-2.13	1.45	2.63	73.9	70.2
[1]	0.48	-0.94	-1.6	54.3	54.2
[4]	-9.16	-9.48	-8.67	-4.83	38.6
[5]	-12.7	-9.54	-12.6	-7.36	8.33
[8]	8.74	-8.57	-4.01	0.78	16
[9]	-2.22	-7	-3.63	-0.83	28.3

Conditions	drug sensitivity score
DERL-7 (IL-2 2.5 ng/mL) [28]	20.2
IMC-1 (IL-2 20 ng/mL) [16]	17.2
KAI3 (IL-2 2.5 ng/mL) [26]	8.7
KHYG-1 (IL-2 2.5 ng/mL) [25]	18.4
NK-92 (IL-2 2.5 ng/mL) [20]	21.2
NK-YS (IL-2 2.5 ng/mL) [24]	11.7
NKL (IL-2 2.5 ng/mL) [27]	11.5
SNK-6 (IL-2 2.5 ng/mL) [23]	16.3
YT (IL-2 2.5 ng/mL) [19]	13.8
[2]	9.75
[17]	1.57
[18]	0
[21]	0.37
[22]	1.12
